{"source": "patent US12594285B2", "about": "“Compositions and methods for protecting against airborne pathogens and irritants” (APPLIED BIOLOGICAL LABORATORIES, INC., priority 2016, dated 2026)", "key": {"[1]": {"tested_on": "Influenza A H1N1 (clinical strain: A/California/7/09)", "experiment": "Apical Influenza replication by quantitative RT-PCR (Example 5)", "assay_type": "cell-based", "details": "3.5, 24 and 48 hours pi; Oseltamivir 10 μM in basal medium"}, "[2]": {"tested_on": "Human Rhinovirus A16 (clinical strain: QCHRV.16)", "experiment": "Apical Rhinovirus replication by quantitative RT-PCR (Example 6)", "assay_type": "cell-based", "details": "Example 6; Rupintrivir 5 μM in basal medium; 3.5, 24 and 48 hours pi"}, "[3]": {"tested_on": "Human Rhinovirus A16 (clinical strain: QCHRV.16)", "experiment": "Apical Rhinovirus replication by quantitative RT-PCR (Example 4)", "assay_type": "cell-based", "details": "3.5, 24 and 48 hours pi; formulations applied apically at 0, 3.5 and 24 h; Rupintrivir 5 μM in basal medium"}, "[4]": {"tested_on": "MucilAir™ 3D model of human airway epithelium infected with Rhinovirus A16", "experiment": "TEER tissue integrity, MucilAir inoculated with Rhinovirus A16 (Example 4)", "details": "toxic positive control, 10% Triton X-100, after cell damage"}}}
{"molecule": "CCOC(=O)C1=C[C@@H](OC(CC)CC)[C@H](NC(C)=O)[C@@H](N)C1", "note": "[Oseltamivir]", "values": [{"measurement": "Influenza A H1N1 replication (genome copy number, apical washes)", "setting": "[1]", "result": "inhibited"}]}
{"molecule": "CCOC(=O)/C=C/[C@H](C[C@@H]1CCNC1=O)NC(=O)[C@@H](CC(=O)[C@@H](NC(=O)c1cc(C)on1)C(C)C)Cc1ccc(F)cc1", "note": "[Rupintrivir]", "values": [{"measurement": "Rhinovirus A16 replication (genome copy number, apical washes)", "setting": "[2]", "result": "inhibited"}, {"measurement": "Rhinovirus A16 replication (genome copy number, apical washes)", "setting": "[3]", "result": "inhibited"}]}
{"molecule": "Triton X-100", "values": [{"measurement": "TEER", "setting": "[4]", "result": "below 100 Ωcm^2"}]}
